# Experimental data reported in ChEMBL document CHEMBL5576125, “Discovery of Pyrazolopyrazines as Selective, Potent, and Mutant-Active MET Inhibitors with Intracranial Efficacy” (J Med Chem, 2024).
# Active and inactive are the calls of the source. The calls are words filed in the database; no cut-off is given here.
# Key:
# NIH3T3 [1] = experiment: Antitumor activity against mouse NIH3T3 cells expressing luciferase and human MET exon 14 deletion construct with MET-D1228N Type I resistance mutation implanted in female athymic nude Foxn1nu mouse assessed as reduction in tumor burden at 100 mg/kg, po qd measured after 29 days by luminescent imaging based analysis; type: functional, organism-based; settings: time 29.0 day
# Mus musculus = experiment: In vivo inhibition of MET in female athymic nude Foxn1nu mouse xenografted with human Hs746T cells expressing MET exon 14 skipping mutation with MET amplification assessed as reduction in phospho-MET protein level in tumor at 3 to 100 mg/kg, po administered as single dose measured after 2 to 8 hrs by ELISA relative to control; type: functional, organism-based; settings: dose 3-100 mg/kg, time 2-8 hrs
# [2] = Efflux ratio of apparent permeability across basolateral to apical over apical to basolateral side in MDCKII-MDR1 cells at 1 uM incubated for 2 hrs in orbital shaker by LC-MS/MS analysis; type: ADME, cell-based, Canis lupus familiaris; settings: dog, MDCK-MDR1
# Hs746T [3] = experiment: Antitumor activity against human Hs746T cells expressing MET exon 14 skipping mutation with MET amplification xenografted in female athymic nude Foxn1nu mouse at 100 mg/kg, po qd administered for 14 days; type: functional, organism-based; settings: time 14.0 day
# NIH3T3 [4] = experiment: Antitumor activity against mouse NIH3T3 cells expressing luciferase and human MET exon 14 deletion construct with MET-D1228N Type I resistance mutation implanted in female athymic nude Foxn1nu mouse assessed as reduction in tumor burden at 30 mg/kg, po bid measured after 29 days by luminescent imaging based analysis; type: functional, organism-based; settings: time 29.0 day
# [5] = In vivo inhibition of MET in female athymic nude Foxn1nu mouse implanted with mouse NIH3T3 cells expressing luciferase and human MET exon 14 deletion construct with MET-D1228N Type I resistance mutation assessed as reduction in phospho-MET protein level in tumor by measuring residual activity at 30 to 100 mg/kg, po administered as single dose measured after 12 hrs by ELISA relative to control; type: functional; settings: dose 30-100 mg/kg
# [6] = target: Hepatocyte growth factor receptor (Homo sapiens, UniProt P08581, F1200I); experiment: Displacement of tracer 236 from N-terminal GST-tagged recombinant human MET F1200I mutant (956 to end residues) expressed in Sf9 insect cells incubated for 1 hr by TR-FRET assay
# [7] = Clearance in female athymic nude Foxn1nu mouse at 1 mg/kg, iv administered as single dose and measured after 24 hrs by LC/MS analysis; type: ADME, organism-based; settings: in vivo
# [8] = AUCinfinity in female athymic nude Foxn1nu mouse at 30 mg/kg, po administered as single dose and measured after 24 hrs by LC/MS analysis; type: ADME, organism-based; settings: in vivo
# [9] = Apparent permeability across apical to basolateral side in MDCKII-MDR1 cells at 1 uM incubated for 2 hrs in orbital shaker by LC-MS/MS analysis; type: ADME, cell-based, Canis lupus familiaris; settings: dog, MDCK-MDR1
# NIH3T3 [10] = experiment: Antitumor activity against mouse NIH3T3 cells expressing luciferase and human MET exon 14 deletion construct with MET-D1228N Type I resistance mutation implanted in female athymic nude Foxn1nu mouse assessed as animal survival rate at 100 mg/kg, po qd measured until 80 days relative to control; type: functional; settings: NIH3T3, 1920 h, time 80 day
# [11] = target: Hepatocyte growth factor receptor (Homo sapiens, UniProt P08581, Y1230H); experiment: Displacement of tracer 236 from N-terminal GST-tagged recombinant human MET Y1230H mutant (956 to end residues) expressed in Sf9 insect cells incubated for 1 hr by TR-FRET assay
# Chain of Hepatocyte growth factor receptor (Homo sapiens, UniProt P08581, Y1230H) (P08581 25-1390 Y1230H limits assumed): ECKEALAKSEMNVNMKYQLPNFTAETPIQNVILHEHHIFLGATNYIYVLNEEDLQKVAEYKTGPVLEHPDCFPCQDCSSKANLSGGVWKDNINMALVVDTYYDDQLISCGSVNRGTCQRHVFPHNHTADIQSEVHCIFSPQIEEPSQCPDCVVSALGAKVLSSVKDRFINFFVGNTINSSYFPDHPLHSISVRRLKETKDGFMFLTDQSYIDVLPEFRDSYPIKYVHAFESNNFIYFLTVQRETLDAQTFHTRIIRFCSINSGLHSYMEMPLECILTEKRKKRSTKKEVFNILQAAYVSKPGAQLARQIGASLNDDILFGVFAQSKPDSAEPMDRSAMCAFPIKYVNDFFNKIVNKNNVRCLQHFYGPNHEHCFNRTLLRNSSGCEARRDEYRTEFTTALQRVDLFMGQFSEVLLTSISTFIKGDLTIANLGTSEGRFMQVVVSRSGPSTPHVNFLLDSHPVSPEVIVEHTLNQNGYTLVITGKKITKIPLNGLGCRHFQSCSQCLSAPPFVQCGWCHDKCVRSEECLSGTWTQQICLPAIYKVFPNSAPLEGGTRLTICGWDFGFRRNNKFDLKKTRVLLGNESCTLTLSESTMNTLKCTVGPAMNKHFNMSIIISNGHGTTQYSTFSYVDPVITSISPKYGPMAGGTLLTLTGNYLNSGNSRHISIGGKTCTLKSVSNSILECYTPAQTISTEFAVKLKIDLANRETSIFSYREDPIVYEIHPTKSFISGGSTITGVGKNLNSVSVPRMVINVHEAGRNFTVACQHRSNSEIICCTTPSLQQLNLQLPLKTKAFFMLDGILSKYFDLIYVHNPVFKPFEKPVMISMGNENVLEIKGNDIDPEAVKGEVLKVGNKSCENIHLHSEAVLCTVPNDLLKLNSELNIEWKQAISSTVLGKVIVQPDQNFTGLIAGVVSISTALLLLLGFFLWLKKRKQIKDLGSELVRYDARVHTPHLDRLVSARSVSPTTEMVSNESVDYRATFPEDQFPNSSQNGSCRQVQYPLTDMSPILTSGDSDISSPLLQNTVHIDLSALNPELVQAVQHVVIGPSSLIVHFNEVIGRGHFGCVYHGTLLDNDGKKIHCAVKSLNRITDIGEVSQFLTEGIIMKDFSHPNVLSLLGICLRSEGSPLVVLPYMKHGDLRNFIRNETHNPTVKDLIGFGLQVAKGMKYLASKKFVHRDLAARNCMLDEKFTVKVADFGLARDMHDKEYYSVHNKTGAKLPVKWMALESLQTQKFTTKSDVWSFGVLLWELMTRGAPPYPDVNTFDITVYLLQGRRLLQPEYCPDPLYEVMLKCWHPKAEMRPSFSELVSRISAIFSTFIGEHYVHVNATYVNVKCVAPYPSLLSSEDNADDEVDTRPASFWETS
# [12] = Metabolic stability in human hepatocytes assessed as clearance at 2 uM measured upto 120 mins by LC-MS/MS analysis; type: ADME, cell-based, Hepatocyte
# [13] = Metabolic stability in mouse hepatocytes assessed as clearance at 2 uM measured upto 120 mins by LC-MS/MS analysis; type: ADME, cell-based, Hepatocyte
# [14] = Ratio of unbound drug concentration in female athymic nude Foxn1nu mouse brain to plasma at 100 mg/kg, po administered as single dose and measured after 24 hrs by LC/MS analysis; type: ADME, organism-based; settings: read-out: K(p,uu,brain)
# [15] = Displacement of tracer 236 from N-terminal GST-tagged recombinant human MET […] mutant (956 to end residues) expressed in Sf9 insect cells incubated for 1 hr by TR-FRET assay
# [16] = Half life in female athymic nude Foxn1nu mouse at 1 mg/kg, iv administered as single dose and measured after 24 hrs by LC/MS analysis; type: ADME, organism-based; settings: in vivo
# NIH3T3 [17] = experiment: Antitumor activity against mouse NIH3T3 cells expressing luciferase and human MET exon 14 deletion construct with MET-D1228N Type I resistance mutation implanted in female athymic nude Foxn1nu mouse assessed as median survival time at 30 mg/kg, po bid measured after 29 days (reference value: 15.5 day); type: functional; settings: time 29 day
# [18] = target: T1, Hepatocyte growth factor receptor (Homo sapiens, UniProt P08581, D1228N); experiment: Inhibition of MET D1228N mutant (unknown origin) transfected in mouse NIH3T3 cells incubated for 1 hr by In-Cell Western assay; type: cell-based
# T1 sequence (P08581 25-1390 D1228N limits assumed): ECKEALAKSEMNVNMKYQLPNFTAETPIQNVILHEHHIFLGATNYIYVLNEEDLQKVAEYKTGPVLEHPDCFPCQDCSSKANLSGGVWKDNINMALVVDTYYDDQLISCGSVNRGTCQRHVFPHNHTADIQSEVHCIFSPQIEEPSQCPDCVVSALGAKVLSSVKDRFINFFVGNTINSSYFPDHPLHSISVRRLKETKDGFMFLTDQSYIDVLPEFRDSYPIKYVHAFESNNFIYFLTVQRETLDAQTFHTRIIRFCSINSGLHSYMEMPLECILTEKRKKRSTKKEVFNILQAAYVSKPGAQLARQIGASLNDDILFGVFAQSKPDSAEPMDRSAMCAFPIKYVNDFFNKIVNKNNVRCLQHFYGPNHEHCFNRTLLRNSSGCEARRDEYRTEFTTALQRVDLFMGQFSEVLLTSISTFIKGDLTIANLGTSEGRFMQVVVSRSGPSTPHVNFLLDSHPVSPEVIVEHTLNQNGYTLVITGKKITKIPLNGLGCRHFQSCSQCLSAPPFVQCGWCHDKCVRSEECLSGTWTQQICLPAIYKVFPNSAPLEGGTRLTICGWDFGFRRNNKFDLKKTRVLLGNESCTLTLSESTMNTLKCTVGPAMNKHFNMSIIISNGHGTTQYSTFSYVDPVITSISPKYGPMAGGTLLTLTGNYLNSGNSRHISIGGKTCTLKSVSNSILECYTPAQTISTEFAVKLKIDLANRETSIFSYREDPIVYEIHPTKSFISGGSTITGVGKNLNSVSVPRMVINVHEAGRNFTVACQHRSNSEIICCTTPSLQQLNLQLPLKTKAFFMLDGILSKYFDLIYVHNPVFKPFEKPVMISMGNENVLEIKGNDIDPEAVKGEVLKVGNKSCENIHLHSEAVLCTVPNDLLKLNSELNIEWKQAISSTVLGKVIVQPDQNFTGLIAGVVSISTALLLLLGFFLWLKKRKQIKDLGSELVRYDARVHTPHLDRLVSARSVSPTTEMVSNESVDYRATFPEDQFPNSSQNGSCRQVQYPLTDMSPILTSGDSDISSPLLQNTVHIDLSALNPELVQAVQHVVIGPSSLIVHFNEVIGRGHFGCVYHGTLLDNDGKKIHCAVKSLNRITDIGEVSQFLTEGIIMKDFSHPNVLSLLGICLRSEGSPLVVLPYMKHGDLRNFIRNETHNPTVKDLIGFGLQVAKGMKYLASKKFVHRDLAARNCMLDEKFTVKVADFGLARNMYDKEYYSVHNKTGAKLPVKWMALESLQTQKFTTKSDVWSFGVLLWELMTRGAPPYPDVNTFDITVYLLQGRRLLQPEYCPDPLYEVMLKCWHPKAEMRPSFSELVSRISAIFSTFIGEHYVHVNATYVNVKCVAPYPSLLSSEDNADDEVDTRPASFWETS
# [19] = Tmax in female athymic nude Foxn1nu mouse at 30 mg/kg, po administered as single dose and measured after 24 hrs by LC/MS analysis; type: ADME, organism-based; settings: in vivo
# [20] = Volume of distribution at steady state in female athymic nude Foxn1nu mouse at 1 mg/kg, iv administered as single dose and measured after 24 hrs by LC/MS analysis; type: ADME, organism-based; settings: in vivo, read-out: Vdss
# [21] = target: T1, Hepatocyte growth factor receptor; experiment: Displacement of tracer 236 from N-terminal GST-tagged recombinant human MET D1228N mutant (956 to end residues) expressed in Sf9 insect cells incubated for 1 hr by TR-FRET assay
# [22] = target: Macrophage-stimulating protein receptor (Homo sapiens) (UniProt Q04912); experiment: Inhibition of human RON incubated for 5 mins in presence of ATP by chelation-enhanced fluorescence based Beckman Coulter analysis relative to control
# [23] = Cmax in female athymic nude Foxn1nu mouse brain at 30 mg/kg, po administered as single dose and measured after 24 hrs by LC/MS analysis; type: ADME, organism-based; settings: in vivo
# Hs746T [24] = experiment: Antitumor activity against human Hs746T cells expressing MET exon 14 skipping mutation with MET amplification xenografted in female athymic nude Foxn1nu mouse at 3 to 30 mg/kg, po bid administered for 14 days; type: functional, organism-based; settings: dose 3-30 mg/kg, time 14.0 day
# [25] = Cmax in female athymic nude Foxn1nu mouse plasma at 30 mg/kg, po administered as single dose and measured after 24 hrs by LC/MS analysis; type: ADME, organism-based
# [26] = Hepatic extraction ratio in female athymic nude Foxn1nu mouse at 1 mg/kg, iv administered as single dose and measured after 24 hrs by LC/MS analysis; type: ADME, organism-based; settings: in vivo, read-out: ERH
# Cytochrome P450 = experiment: Inhibition of CYP450 (unknown origin); type: ADME, protein assay; settings: human
# [27] = target: Vascular endothelial growth factor receptor 2 (Homo sapiens, UniProt P35968); experiment: Inhibition of VEGFR2 in human Flp-In-293 cells by ELISA; type: toxicity, cell-based
# Chain of Vascular endothelial growth factor receptor 2 (P35968 whole entry): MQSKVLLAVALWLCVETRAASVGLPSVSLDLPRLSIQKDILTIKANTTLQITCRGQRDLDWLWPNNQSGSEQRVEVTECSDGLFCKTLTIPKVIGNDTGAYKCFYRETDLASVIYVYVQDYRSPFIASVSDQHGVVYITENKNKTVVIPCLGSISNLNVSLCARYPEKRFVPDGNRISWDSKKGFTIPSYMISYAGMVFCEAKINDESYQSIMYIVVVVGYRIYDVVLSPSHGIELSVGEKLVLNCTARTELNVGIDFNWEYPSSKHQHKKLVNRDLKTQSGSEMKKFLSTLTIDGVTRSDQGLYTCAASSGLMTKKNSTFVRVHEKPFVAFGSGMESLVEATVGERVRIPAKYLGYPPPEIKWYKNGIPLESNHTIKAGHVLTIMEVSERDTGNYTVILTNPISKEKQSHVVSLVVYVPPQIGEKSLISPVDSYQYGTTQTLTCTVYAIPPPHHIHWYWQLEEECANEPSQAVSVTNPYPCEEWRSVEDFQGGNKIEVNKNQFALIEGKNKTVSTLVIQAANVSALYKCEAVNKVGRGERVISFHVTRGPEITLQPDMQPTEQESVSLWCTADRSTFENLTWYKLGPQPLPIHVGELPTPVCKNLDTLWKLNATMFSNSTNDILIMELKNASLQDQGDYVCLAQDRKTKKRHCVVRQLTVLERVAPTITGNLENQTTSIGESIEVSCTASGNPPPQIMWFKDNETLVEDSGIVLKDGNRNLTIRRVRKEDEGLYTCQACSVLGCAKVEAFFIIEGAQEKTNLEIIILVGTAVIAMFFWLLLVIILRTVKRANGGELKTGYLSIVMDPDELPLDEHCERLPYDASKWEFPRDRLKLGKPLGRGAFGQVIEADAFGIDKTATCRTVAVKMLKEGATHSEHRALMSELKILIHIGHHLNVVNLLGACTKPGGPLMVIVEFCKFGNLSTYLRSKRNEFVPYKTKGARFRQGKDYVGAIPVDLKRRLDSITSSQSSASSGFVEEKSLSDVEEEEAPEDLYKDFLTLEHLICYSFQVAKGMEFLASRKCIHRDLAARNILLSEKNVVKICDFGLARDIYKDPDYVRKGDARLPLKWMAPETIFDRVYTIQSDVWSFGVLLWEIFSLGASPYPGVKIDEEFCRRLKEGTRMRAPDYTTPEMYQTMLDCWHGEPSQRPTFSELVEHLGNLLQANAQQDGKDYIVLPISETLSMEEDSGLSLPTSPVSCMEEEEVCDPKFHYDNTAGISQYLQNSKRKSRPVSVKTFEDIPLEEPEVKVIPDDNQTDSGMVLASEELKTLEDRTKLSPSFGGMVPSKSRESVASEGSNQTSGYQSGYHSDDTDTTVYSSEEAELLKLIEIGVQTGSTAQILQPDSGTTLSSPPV
# [28] = Displacement of tracer 236 from N-terminal GST-tagged recombinant human MET exon 14 deletion mutant (956 to end residues) expressed in Sf9 insect cells incubated for 1 hr by TR-FRET assay
# [29] = Ratio of unbound drug concentration in female athymic nude Foxn1nu mouse brain to plasma at 30 mg/kg, po administered as single dose and measured after 24 hrs by LC/MS analysis; type: ADME, organism-based; settings: read-out: K(p,uu,brain)
smiles,measurement,setting,value
Cn1ccc([C@H]2C[C@H](N(c3cc(F)c(NC(=O)c4ccnn(-c5ccc(F)cn5)c4=O)cc3F)c3nccn4nccc34)C2)n1,Activity,NIH3T3 [1],Active
same,inhibition,Mus musculus,Active
same,"efflux ratio at 2 h, 1 µM",[2],1.1
same,Activity,Hs746T [3],Active
same,Activity,NIH3T3 [4],Active
same,Activity,[5],<6%
same,IC50,[6],90 nM
same,clearance,[7],9.5 mL/min/kg
same,AUC(0-inf),[8],113 µg·h/mL
same,"Papp A→B at 2 h, 1 µM",[9],8 ×10⁻⁶ cm/s
same,survival at 100 mg/kg,NIH3T3 [10],100%
same,IC50,[11],5 nM
same,CLhep predicted at 2 µM,[12],13 mL/min/kg
same,CLhep predicted at 2 µM,[13],35 mL/min/kg
same,Kp uu at 24 h,[14],0.24
same,IC50,[15],15 nM
same,half-life,[16],114 min
same,MST,NIH3T3 [17],33 days
same,IC50,[18],23 nM
same,Tmax,[19],2 h
same,Vd,[20],1.3 L/kg
same,IC50,[21],6 nM
same,inhibition,[22],> 50%
same,Cmax,[23],0.9 µg/mL
same,Activity,Hs746T [24],Active
same,Cmax,[25],10500 ng/mL
same,hepatic extraction ratio at 24 h,[26],0.106
same,inhibition (INH),Cytochrome P450,Not Active
same,IC50,[27],> 5 µM
same,IC50,[28],6 nM
same,Kp uu at 24 h,[29],0.11
